Data from article PMC9274761, “Effects of Structurally Different HDAC Inhibitors against Trypanosoma cruzi, Leishmania, and Schistosoma mansoni” (ACS Infectious Diseases, 2022).

Assays:
[1] = biological target: HDAC1 (Homo sapiens, UniProt Q13547); experiment: HDAC1 protease-coupled fluorescence (AMC) inhibition assay; type: biochemical; details: hr enzyme, 10-dose, 3-fold dilution from 50 μM (3: from 300 μM); read-out: IC50 against HDAC1
From the text: (§1) The new hydroxamates 2 and 6 were screened and profiled via a protease-coupled assay in which the quantification of HDAC enzyme activity is based on the formation of a free fluorescent group, the 7-amino-4-methyl coumarin (AMC).[42] […] After deacetylation by HDACs, the de(trifluoro)acetylated AMC–peptides were sensitive toward lysine peptidase and free fluorogenic AMC was generated and quantified.[42]
(§2) To gain insights into its inhibition profile for human HDACs, we tested 3 against hrHDACs 1–6 and 8 following the above procedure (Table 1).
(§3) Individual IC50 values for each HDAC isozyme were measured with the homogeneous fluorescence release HDAC assay.[42]

[2] = system: L. amazonensis amastigotes in primary mouse macrophages; details: 10 μM, 3 days, toxic = toxic for macrophages
[3] = system: L. donovani axenic amastigotes; experiment: Resazurin reduction assay, L. donovani axenic amastigotes; type: cell-based; details: Leishmania donovani, read-out: percentage of inhibition, L. donovani axenic amastigotes
[4] = biological target: T1, HDAC6 (Homo sapiens, UniProt Q9UBN7); experiment: HDAC6 protease-coupled fluorescence (AMC) inhibition assay; type: biochemical; details: hr enzyme, 10-dose, 3-fold dilution from 50 μM (3: from 300 μM); read-out: IC50 against HDAC6
T1 sequence (Q9UBN7 1-1215): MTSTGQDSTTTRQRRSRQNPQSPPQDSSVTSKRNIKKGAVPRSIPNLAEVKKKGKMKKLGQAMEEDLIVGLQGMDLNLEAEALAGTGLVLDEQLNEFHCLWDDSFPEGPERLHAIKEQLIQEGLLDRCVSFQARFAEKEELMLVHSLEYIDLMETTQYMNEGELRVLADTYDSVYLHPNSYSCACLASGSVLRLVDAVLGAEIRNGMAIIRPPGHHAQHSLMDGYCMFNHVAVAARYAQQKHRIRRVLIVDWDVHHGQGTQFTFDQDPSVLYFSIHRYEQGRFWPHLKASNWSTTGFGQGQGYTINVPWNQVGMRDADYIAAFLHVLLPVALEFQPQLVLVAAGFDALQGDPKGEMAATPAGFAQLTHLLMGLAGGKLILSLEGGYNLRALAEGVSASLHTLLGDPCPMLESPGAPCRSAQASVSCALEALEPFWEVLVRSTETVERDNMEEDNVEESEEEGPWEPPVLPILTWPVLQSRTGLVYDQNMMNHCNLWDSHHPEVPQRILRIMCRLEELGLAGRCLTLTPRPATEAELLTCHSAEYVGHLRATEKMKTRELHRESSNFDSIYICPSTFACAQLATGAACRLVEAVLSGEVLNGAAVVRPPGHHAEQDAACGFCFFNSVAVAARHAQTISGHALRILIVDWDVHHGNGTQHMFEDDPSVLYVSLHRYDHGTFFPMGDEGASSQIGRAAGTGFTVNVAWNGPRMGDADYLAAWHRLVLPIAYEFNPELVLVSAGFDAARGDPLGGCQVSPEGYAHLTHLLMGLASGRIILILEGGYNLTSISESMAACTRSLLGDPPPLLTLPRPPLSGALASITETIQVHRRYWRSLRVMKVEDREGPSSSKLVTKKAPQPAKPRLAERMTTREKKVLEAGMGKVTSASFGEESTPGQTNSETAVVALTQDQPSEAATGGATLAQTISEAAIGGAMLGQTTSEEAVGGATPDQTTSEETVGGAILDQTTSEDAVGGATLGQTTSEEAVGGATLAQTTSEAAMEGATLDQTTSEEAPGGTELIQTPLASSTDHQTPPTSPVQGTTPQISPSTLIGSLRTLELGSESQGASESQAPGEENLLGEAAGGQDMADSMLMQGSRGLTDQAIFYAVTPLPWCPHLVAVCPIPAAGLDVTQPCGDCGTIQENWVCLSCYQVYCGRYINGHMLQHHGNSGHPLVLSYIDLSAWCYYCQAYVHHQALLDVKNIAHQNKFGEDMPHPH
From the text: as §1, §2, §3

[5] = system: L. donovani promastigotes; experiment: Resazurin reduction assay, L. donovani promastigotes; type: cell-based; details: Leishmania donovani, read-out: percentage of inhibition, L. donovani promastigotes
[6] = biological target: HDAC2 (Homo sapiens, UniProt Q92769); experiment: HDAC2 protease-coupled fluorescence (AMC) inhibition assay; type: biochemical; details: hr enzyme, 10-dose, 3-fold dilution from 50 μM (3: from 300 μM); read-out: IC50 against HDAC2
Sequence of HDAC2 (Q92769 whole entry): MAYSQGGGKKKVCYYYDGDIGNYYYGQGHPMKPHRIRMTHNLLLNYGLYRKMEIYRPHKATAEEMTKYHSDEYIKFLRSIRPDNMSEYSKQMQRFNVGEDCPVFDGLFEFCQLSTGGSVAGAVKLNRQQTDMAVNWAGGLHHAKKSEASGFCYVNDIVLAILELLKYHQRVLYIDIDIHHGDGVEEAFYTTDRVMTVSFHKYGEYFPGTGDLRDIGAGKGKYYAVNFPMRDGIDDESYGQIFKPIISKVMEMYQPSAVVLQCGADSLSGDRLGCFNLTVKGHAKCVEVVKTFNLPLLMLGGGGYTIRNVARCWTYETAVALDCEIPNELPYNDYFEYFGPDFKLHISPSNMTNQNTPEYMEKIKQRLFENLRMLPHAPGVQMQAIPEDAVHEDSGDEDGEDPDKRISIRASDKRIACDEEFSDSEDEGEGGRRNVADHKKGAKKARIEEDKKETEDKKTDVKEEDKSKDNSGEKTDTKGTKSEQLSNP
From the text: as §1, §2, §3

[7] = system: L. amazonensis promastigotes; experiment: Resazurin reduction assay, L. amazonensis promastigotes; type: cell-based; details: Leishmania amazonensis, read-out: percentage of inhibition, L. amazonensis promastigotes
[8] = biological target: HDAC10 (Homo sapiens, UniProt Q969S8); experiment: HDAC10 protease-coupled fluorescence (AMC) inhibition assay; type: biochemical; details: hr enzyme; read-out: IC50 against HDAC10
Sequence of HDAC10 (Q969S8 whole entry): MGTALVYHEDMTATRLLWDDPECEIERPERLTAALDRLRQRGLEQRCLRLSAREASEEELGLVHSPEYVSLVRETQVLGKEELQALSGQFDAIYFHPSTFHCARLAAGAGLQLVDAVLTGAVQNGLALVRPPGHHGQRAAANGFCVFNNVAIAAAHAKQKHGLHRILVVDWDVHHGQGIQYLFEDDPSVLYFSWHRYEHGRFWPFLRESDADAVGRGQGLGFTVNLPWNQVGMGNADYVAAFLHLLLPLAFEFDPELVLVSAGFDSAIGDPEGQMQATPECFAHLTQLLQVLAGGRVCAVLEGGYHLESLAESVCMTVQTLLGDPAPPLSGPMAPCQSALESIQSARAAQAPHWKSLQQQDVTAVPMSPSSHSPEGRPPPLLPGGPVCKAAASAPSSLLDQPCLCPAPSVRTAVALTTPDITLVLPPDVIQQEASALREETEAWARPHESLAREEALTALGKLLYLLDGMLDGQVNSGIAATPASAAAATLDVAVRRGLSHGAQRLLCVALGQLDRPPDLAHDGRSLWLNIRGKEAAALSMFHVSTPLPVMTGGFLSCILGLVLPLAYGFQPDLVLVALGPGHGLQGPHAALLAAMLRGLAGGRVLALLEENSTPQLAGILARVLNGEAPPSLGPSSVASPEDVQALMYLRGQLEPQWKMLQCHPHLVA
Protocol: as §1, §3

[9] = biological target: T2, HDAC8 (Homo sapiens, UniProt Q9BY41); experiment: HDAC8 protease-coupled fluorescence (AMC) inhibition assay; type: biochemical; details: hr enzyme, substrate RHK(Ac)K(Ac)AMC; read-out: IC50 against HDAC8
T2 sequence (Q9BY41 1-377): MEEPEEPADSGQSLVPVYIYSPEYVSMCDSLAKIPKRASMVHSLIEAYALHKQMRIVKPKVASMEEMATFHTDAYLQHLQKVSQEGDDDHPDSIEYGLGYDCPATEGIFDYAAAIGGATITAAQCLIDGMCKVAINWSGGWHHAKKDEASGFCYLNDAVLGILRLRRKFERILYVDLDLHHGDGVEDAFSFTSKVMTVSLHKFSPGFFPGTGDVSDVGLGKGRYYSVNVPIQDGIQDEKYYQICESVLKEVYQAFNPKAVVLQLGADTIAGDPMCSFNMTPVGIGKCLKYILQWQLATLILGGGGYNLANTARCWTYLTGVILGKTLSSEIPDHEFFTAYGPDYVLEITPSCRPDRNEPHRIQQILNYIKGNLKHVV
From the text: as §1, §2, §3

[10] = biological target: HDAC11 (Homo sapiens, UniProt Q96DB2); experiment: HDAC11 protease-coupled fluorescence (AMC) inhibition assay; type: biochemical; details: hr enzyme; read-out: IC50 against HDAC11
Sequence of HDAC11 (Q96DB2 whole entry): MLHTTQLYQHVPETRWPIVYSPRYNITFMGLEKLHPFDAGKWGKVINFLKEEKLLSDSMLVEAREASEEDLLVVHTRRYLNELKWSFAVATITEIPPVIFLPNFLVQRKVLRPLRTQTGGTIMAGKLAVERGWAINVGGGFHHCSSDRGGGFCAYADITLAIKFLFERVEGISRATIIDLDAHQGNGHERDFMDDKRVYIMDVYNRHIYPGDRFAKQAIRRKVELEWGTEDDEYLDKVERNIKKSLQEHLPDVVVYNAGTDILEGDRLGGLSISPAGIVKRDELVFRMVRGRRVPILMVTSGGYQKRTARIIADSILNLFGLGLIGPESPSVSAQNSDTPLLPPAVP
Protocol: as §1, §3

[11] = biological target: HDAC4 (Homo sapiens, UniProt P56524); experiment: HDAC4 protease-coupled fluorescence (AMC) inhibition assay; type: biochemical; details: hr enzyme, class IIa substrate Boc-Lys(trifluoroacetyl)-AMC; read-out: IC50 against HDAC4
Sequence of HDAC4 (P56524 whole entry): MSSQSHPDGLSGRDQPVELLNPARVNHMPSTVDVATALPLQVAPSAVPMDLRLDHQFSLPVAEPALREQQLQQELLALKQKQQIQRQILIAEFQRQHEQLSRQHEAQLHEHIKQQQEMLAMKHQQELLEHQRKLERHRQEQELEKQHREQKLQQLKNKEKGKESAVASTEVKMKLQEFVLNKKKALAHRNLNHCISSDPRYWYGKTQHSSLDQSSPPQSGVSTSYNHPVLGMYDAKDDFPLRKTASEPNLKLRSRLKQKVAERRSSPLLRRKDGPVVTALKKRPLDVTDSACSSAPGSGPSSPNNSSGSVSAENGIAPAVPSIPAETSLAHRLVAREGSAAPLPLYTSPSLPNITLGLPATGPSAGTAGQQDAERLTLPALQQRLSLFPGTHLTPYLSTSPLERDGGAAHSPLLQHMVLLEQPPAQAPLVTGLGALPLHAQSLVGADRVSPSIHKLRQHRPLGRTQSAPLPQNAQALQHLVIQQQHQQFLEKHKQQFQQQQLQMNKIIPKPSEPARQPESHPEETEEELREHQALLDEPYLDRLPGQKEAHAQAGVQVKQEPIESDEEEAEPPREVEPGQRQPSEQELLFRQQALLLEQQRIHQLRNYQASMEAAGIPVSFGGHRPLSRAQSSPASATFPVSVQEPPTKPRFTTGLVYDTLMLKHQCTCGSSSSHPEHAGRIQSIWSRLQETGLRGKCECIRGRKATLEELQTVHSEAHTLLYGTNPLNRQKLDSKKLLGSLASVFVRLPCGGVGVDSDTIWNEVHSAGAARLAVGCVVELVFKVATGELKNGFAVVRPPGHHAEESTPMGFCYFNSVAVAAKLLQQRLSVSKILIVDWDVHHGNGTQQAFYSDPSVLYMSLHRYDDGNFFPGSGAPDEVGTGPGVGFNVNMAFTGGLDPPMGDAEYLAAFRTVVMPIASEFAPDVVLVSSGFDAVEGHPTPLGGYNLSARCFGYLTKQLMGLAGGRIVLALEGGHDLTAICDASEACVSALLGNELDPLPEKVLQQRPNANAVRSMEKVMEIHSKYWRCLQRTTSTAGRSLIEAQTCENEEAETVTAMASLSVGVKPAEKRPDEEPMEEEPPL
From the text: as §1, §2, §3

[12] = system: T. cruzi amastigotes and trypomastigotes; experiment: T. cruzi infection assay in L929 cells (beta-galactosidase Tulahuen strain); type: cell-based, Trypanosoma cruzi; details: infected L929 cells, 96 h; for EC50, growth of T. cruzi amastigotes and trypomastigotes: mean ± SD
[13] = Trypanosoma cruzi, read-out: percentage of T. cruzi growth inhibition
[14] = Trypanosoma cruzi, toxic = L929 death, read-out: percentage of T. cruzi growth inhibition

Sequence of HDAC1 (Q13547 whole entry): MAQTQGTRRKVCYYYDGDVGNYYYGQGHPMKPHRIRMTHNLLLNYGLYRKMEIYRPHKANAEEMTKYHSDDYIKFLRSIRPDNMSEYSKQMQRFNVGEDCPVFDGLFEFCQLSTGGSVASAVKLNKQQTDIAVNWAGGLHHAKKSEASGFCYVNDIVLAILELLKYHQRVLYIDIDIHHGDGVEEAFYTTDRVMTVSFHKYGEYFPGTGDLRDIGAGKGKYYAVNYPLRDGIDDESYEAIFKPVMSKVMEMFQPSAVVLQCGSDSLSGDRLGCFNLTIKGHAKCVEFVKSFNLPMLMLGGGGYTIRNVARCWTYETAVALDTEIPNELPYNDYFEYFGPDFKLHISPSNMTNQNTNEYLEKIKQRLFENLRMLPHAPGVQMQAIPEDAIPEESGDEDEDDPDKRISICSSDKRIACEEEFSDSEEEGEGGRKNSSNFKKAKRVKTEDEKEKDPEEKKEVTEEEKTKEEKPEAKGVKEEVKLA

Structure (SMILES) | IC50 [1] | HCA outcome against intramacrophagic L. amazonensis amastigotes [2] | inhibition at 0.8 µM [3] | inhibition at 4 µM [3] | inhibition at 20 µM [3] | IC50 [4] | inhibition at 0.8 µM [5] | inhibition at 4 µM [5] | inhibition at 20 µM [5] | IC50 [6] | inhibition at 4 µM [7] | inhibition at 20 µM [7] | IC50 [8] | IC50 [9] | IC50 [10] | IC50 [11] | percentage of T. cruzi growth inhibition ([12]; 40 μM, toxic = L929 death) | percentage of T. cruzi growth inhibition ([12]; 80 μM, toxic = L929 death) | percentage of T. cruzi growth inhibition ([12]; 160 μM, toxic = L929 death) | inhibition at 1.25 µM [12, 13] | other results
O=C(/C=C/c1ccc(CSc2nc(Cl)cc(-c3ccccc3)n2)cc1)NO [Compound 2, 3-(4-(((4-Chloro-6-phenylpyrimidin-2-yl)thio)methyl)phenyl)-N-hydroxy Acrylamide] | 1680 nM | toxic | 16.4 ± 18.6% | 7.8 ± 1.1% | 60.2 ± 1.4% | 120 nM | 1.1 ± 2% | 2.5 ± 1.4% | 74.8 ± 2.5% | 4110 nM | 11.3 ± 1.7% | 83.3 ± 1.8% | 2800 nM | 2220 nM | 2310 nM | 17300 nM | toxic | toxic | toxic | 0% | inhibition at 2.5 µM [12, 14]: 0%; inhibition at 5 µM [12, 14]: 0%; inhibition at 10 µM ([12]; Trypanosoma cruzi, 10 μM, toxic = L929 death, read-out: percentage of T. cruzi growth inhibition): 0%; inhibition at 20 µM ([12]; Trypanosoma cruzi, 20 μM, toxic = L929 death, read-out: percentage of T. cruzi growth inhibition): 3%; EC50, growth of T. cruzi amastigotes and trypomastigotes [12]: inactive
CN(C)Cc1ccc(S(=O)(=O)n2ccc3cc(/C=C/C(=O)NO)ccc32)cc1 [Compound 6, 3-(1-((4-((Dimethylamino)methyl)phenyl)sulfonyl)-1H-indol-5-yl)-N-hydroxy Acrylamide] | 2070 nM | toxic | 39.9 ± 2.1% | 0.1 ± 0.8% | 39.6 ± 5.5% | 18 nM | 7.9 ± 7.5% | 6.9 ± 8.7% | 8.6 ± 1.3% | 3490 nM | 9.2 ± 3.4% | 60.1 ± 1.7% | 2870 nM | 1870 nM | 4870 nM | 16700 nM | toxic | toxic | toxic | 0% | percentage of T. cruzi growth inhibition ([12]; 10 μM, toxic = L929 death): toxic; percentage of T. cruzi growth inhibition ([12]; 20 μM, toxic = L929 death): toxic; inhibition at 2.5 µM [12, 14]: 0%; inhibition at 5 µM [12, 14]: 3%; EC50, growth of T. cruzi amastigotes and trypomastigotes [12]: inactive
